# In ChEMBL document CHEMBL5608250, “Quinolinonyl Derivatives as Dual Inhibitors of the HIV-1 Integrase Catalytic Site and Integrase-RNA interactions” (ACS Med Chem Lett, 2024):
# Active and inactive are the calls of the source. No cut-off for these calls is given here.
# Columns and labels:
# [1] = Inhibition of His-tagged HIV-1 integrase/FLAG-tagged LEDGF (unknown origin) protein-protein interaction preincubated with integrase for 30 mins followed by LEDGF/p75 addition and measured after overnight incubation by HTRF assay
# [2] = test system: Human immunodeficiency virus 1; test: (§1) Inhibition of 6His-tagged recombinant HIV-1 integrase/biotinylated HIV-1 transactivation response element RNA interaction assessed as […] preincubated with integrase for 2 hrs followed by RNA addition and measured after 1 hrs by ALPHAscreen based AlphaLISA; conditions: time 3.0 hrs
# [3] = target: T1, Human immunodeficiency virus type 1 integrase (Human immunodeficiency virus 1, UniProt Q7ZJM1); test: Inhibition of HIV-1 integrase catalytic activity incubated for 1 hrs in absence of LEDGF/p75 by HTRF assay
# T1 sequence (Q7ZJM1 whole entry): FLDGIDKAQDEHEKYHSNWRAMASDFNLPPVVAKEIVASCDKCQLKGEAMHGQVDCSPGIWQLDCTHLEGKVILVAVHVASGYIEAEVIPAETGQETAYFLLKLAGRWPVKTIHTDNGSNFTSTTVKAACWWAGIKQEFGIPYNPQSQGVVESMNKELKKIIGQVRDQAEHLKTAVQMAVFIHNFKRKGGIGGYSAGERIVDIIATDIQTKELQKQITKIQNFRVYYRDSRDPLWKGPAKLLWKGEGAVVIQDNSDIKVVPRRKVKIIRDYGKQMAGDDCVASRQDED
# [4] = target: T1, Human immunodeficiency virus type 1 integrase; test: (§2) Inhibition of HIV1 integrase activity by measuring multimerization of His-tagged integrase/FLAG-tagged integrase incubated for 3 hrs by […] HTRF assay
# [5] = target: Human immunodeficiency virus type 1 integrase (Human immunodeficiency virus 1) (UniProt Q7ZJM1); test: as §2
# Chain of Human immunodeficiency virus type 1 integrase (Human immunodeficiency virus 1) (Q7ZJM1 as listed by the source): as the sequence (Q7ZJM1 whole entry) above
# [6] = as §1; set-up: species or system Human immunodeficiency virus 1
# [7] = test system: Human immunodeficiency virus 1; test: (§3) Antiviral activity against VSV-G pseudotyped HIV-1 NL4.3 (isolated from compound pretreated HEK293T cells viral stock supernatant) infected in human MT4 cells assessed as inhibition of late stage viral replication preincubated for 3 to 4 hrs in presence of polybrene followed by fresh media replacement with compound and measured after 48 hrs by flow cytometric analysis; assay type: functional, organism-based; conditions: time 51-52 hrs
# [8] = test system: Human immunodeficiency virus 1; test: as §3, with “from” for “from compound pretreated”, “of early” for “of late”; assay type: functional, organism-based; conditions: Human immunodeficiency virus 1, NL4.3, MT4
# [9] = test system: Human immunodeficiency virus 1; test: as §3, with “from” for “from compound pretreated”, “of early” for “of late”, “analysis relative to control” for “analysis”; assay type: functional; conditions: time 51-52 hrs
# [10] = test system: Human immunodeficiency virus 1; test: Antiviral activity against VSV-G pseudotyped HIV-1 NL4.3 (isolated from compound pretreated HEK293T cells viral stock supernatant) infected in human MT4 cells assessed as inhibition of late stage viral replication at 25 microM preincubated for 3 to 4 hrs in presence of polybrene followed by fresh media replacement with compound and measured after 48 hrs by flow cytometric analysis relative to …; assay type: functional; conditions: Human immunodeficiency virus 1, NL4.3, MT4, time 51-52 hrs
SMILES,inhibition [1],inhibition [2],IC50 [3] [nM],EC50 [4] [nM],inhibition [5],IC50 [6] [nM],Activity [7],EC50 [8] [nM],inhibition (INH) [9] [%],inhibition at 25 µM [10] [%]
O=C(O)c1cn(Cc2ccc(F)cc2)c2ccc(OCc3ccc(OCc4ccccc4)cc3)cc2c1=O,inactive,Active,6280,> 2000,,,,,,
CCOC(=O)/C(O)=C/C(=O)c1cn(Cc2ccc(F)cc2)c2ccc(C(=O)c3ccc(C(=O)OCC)cc3)cc2c1=O,inactive,Active,741,,Active,,,,,
CCOC(=O)/C(O)=C/C(=O)c1cc2c(=O)c(C(=O)/C=C(\O)C(=O)OCC)cn(Cc3ccc(F)cc3)c2cc1N1CCN(C)CC1,inactive,,782,,Active,4190,,,,
CCOC(=O)/C(O)=C/C(=O)c1ccc2[nH]cc(C(=O)/C=C(\O)C(=O)OCC)c(=O)c2c1,Active,,2340,,Active,2220,,,,
CCOC(=O)/C(O)=C/C(=O)c1ccc2c(c1)c(=O)c(C(=O)/C=C(\O)C(=O)OCC)cn2Cc1ccc(F)cc1,inactive,,800,,Active,1980,,,,
O=C(O)/C(O)=C/C(=O)c1ccc2[nH]cc(C(=O)/C=C(\O)C(=O)O)c(=O)c2c1,Active,,3140,,Active,1330,,,,
CCOC(=O)/C(O)=C/C(=O)c1cc2c(=O)c(C(=O)/C=C(\O)C(=O)OCC)cn(Cc3ccc(F)cc3)c2cc1N(C)C,inactive,,480,> 200000,,1040,inactive,> 6250,50,
CN(C)c1cc2c(cc1C(=O)/C=C(\O)C(=O)O)c(=O)c(C(=O)/C=C(\O)C(=O)O)cn2Cc1ccc(F)cc1,inactive,,181,,Active,750,inactive,> 6250,38,
O=C(O)/C(O)=C/C(=O)c1ccc2c(c1)c(=O)c(C(=O)/C=C(\O)C(=O)O)cn2Cc1ccc(F)cc1,Active,,,,Active,840,,2270,,40
O=C(O)/C(O)=C/C(=O)c1cn(Cc2ccc(F)cc2)c2ccc(C(=O)c3ccc(C(=O)O)cc3)cc2c1=O,inactive,,77,,Active,1570,,,,
CCOC(=O)c1cn(Cc2ccc(F)cc2)c2ccc(OCc3cccc4ccccc34)cc2c1=O,inactive,Active,41900,> 200000,,,,,,
O=C(O)c1cn(Cc2ccc(F)cc2)c2ccc(OCc3ccc(F)cc3)cc2c1=O,inactive,Active,> 200000,,inactive,,,,,
O=C(O)c1cn(Cc2ccc(F)cc2)c2ccc(OCc3cccc4ccccc34)cc2c1=O,inactive,Active,36500,> 200000,,,,,,
O=C(O)c1cn(Cc2ccc(F)cc2)c2ccc(Oc3ccccc3)cc2c1=O,inactive,Active,> 200000,,Active,,,,,
CCOC(=O)c1cn(Cc2ccc(F)cc2)c2ccc(OCc3ccc(OCc4ccccc4)cc3)cc2c1=O,inactive,Active,> 200000,,Active,,,,,
